The values below come from ChEMBL document CHEMBL5465560, “Selectivity Literature for EUbOPEN Chemogenomic Library” (2024).

Experiment [1] concerns the target Cyclin-dependent kinase 14/Cyclin-Y (Homo sapiens) (UniProt O94921+Q8ND76). In words: Selectivity interaction (LanthaScreen Eu Kinase Binding Assay) EUB0001632a CDK14. It is filed as protein-complex assay. The conditions noted are these: at 10 µM. (In general: Time-resolved FRET reads energy transfer from a long-lived donor to a nearby acceptor.)
In experiment [2] the target is T1, Serine/threonine-protein kinase MAK (Homo sapiens) (UniProt P20794).
T1 sequence (whole entry): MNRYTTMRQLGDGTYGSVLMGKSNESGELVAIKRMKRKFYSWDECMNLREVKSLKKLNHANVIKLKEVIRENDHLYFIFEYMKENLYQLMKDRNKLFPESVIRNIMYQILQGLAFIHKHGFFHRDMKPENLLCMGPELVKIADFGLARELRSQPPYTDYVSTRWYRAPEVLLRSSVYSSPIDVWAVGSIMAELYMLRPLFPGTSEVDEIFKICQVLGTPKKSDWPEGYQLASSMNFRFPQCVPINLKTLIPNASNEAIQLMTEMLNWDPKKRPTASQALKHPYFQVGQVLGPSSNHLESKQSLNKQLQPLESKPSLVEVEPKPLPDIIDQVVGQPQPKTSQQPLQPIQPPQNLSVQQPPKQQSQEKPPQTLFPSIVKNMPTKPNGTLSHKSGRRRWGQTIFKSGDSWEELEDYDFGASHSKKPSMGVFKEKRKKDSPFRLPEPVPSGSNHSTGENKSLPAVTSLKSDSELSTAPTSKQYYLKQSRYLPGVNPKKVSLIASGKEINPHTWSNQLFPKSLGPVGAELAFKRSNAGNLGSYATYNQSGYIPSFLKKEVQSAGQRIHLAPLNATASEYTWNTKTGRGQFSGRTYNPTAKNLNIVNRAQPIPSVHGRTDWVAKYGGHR
In words: Selectivity interaction (KinomeScan (DiscoverX)) EUB0001619a MAK. The conditions noted are these: at 1 µM.

Experiment [3] concerns the target Serine/threonine-protein kinase 32A (Homo sapiens) (UniProt Q8WU08). In words: Selectivity interaction (KinomeScan (DiscoverX)) EUB0000695a STK32A. The conditions noted are these: at 100 nM.
Experiment [4] concerns the target Activin receptor type-2A (Homo sapiens) (UniProt P27037). The conditions noted are these: at 10 µM.
The target of another experiment is SRSF protein kinase 1 (Homo sapiens, UniProt Q96SB4). In words: Selectivity interaction (ActivX KiNativ screen (kinase selectivity in THP-1 cell lysates)) EUB0000639a SRPK1. As to conditions: lysate, at 0.01 µM. It is filed as subcellular.
Chain of SRSF protein kinase 1 (Q96SB4 whole entry): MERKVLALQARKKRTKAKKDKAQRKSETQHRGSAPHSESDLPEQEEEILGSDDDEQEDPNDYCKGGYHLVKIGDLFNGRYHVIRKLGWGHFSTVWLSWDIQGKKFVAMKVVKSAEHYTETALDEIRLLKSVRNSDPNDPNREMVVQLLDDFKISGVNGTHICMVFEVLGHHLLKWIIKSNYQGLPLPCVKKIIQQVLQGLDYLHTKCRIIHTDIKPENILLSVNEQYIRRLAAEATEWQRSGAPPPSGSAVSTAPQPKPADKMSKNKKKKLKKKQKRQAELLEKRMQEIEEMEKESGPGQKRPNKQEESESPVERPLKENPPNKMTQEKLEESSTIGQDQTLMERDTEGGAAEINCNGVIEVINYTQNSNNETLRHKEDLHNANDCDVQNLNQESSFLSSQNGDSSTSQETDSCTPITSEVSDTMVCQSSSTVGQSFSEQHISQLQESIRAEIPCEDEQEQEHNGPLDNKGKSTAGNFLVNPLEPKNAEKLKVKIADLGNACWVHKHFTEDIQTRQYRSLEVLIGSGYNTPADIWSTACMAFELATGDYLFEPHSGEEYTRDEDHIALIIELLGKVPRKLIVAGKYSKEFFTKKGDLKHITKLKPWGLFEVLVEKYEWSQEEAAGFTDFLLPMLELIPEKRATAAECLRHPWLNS
Experiment [5] addresses Tyrosine-protein kinase Srms (Homo sapiens) (UniProt Q9H3Y6). In words: Selectivity interaction (KinomeScan (DiscoverX)) EUB0000045b SRMS.
In experiment [6] the target is Serine/threonine-protein kinase N3 (Homo sapiens) (UniProt Q6P5Z2). In words: Selectivity interaction (ProQinase) EUB0000171b PKN3.
Chain of Serine/threonine-protein kinase N3 (Homo sapiens) (Q6P5Z2 whole entry, looked up): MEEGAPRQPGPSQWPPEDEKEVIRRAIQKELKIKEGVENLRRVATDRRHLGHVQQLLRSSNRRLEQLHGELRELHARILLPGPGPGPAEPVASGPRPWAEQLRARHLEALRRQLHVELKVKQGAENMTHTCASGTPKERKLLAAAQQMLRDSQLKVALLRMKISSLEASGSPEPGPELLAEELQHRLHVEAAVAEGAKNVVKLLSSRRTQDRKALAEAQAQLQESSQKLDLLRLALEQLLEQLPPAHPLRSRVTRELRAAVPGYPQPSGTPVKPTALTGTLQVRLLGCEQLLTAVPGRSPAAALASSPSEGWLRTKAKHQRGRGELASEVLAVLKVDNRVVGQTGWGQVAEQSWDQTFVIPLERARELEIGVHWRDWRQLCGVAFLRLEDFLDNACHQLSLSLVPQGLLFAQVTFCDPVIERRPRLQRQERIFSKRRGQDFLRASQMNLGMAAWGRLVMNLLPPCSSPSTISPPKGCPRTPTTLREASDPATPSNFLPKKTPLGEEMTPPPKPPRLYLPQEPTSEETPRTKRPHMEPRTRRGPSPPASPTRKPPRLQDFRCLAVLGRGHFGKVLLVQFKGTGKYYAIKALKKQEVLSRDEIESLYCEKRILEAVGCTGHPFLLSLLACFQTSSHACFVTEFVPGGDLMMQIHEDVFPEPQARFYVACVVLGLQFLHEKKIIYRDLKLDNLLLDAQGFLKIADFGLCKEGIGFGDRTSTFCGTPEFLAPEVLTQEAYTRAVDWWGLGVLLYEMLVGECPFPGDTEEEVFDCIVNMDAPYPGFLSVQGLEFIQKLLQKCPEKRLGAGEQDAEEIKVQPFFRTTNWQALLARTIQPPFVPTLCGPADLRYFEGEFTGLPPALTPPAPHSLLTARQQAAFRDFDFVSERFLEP
Experiment [7] has as its target T2, Serine/threonine-protein kinase ULK2 (Homo sapiens) (UniProt Q8IYT8).
T2 sequence (whole entry): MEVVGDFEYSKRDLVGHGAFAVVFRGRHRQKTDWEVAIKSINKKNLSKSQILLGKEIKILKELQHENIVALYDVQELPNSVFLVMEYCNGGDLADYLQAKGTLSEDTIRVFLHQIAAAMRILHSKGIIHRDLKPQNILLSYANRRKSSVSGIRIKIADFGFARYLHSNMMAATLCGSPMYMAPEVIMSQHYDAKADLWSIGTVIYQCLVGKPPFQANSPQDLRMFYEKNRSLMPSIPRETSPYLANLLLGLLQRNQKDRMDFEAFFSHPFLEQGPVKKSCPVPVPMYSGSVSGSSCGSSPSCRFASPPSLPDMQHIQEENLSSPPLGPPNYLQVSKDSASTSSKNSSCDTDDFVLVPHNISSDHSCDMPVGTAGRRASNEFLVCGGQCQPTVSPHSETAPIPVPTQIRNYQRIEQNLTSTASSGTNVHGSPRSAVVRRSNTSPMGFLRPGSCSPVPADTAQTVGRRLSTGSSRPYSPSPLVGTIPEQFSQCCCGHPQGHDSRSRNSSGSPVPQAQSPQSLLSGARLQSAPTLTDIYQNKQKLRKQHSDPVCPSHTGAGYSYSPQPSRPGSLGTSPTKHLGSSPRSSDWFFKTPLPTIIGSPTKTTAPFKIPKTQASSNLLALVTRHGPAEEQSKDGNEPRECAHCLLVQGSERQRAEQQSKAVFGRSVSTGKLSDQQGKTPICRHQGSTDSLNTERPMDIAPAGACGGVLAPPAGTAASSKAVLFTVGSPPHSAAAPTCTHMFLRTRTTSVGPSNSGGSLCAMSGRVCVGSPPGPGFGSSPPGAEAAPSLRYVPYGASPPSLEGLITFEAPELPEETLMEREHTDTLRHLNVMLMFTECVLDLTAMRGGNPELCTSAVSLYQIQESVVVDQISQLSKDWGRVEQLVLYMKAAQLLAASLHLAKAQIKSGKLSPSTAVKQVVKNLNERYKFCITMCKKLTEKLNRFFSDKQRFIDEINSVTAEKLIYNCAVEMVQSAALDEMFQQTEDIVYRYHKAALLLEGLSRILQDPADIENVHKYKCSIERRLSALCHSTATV
In words: Selectivity interaction (KinomeScan (DiscoverX)) EUB0000618a ULK2. The conditions noted are these: at 10 µM.

Experiment [8] deals with Interleukin-1 receptor-associated kinase 1 (Homo sapiens) (UniProt P51617). In words: Selectivity interaction (KinomeScan (DiscoverX)) EUB0001079a IRAK1. The conditions noted are these: at 1 µM.
Chain of Interleukin-1 receptor-associated kinase 1 (Homo sapiens) (P51617 whole entry, looked up): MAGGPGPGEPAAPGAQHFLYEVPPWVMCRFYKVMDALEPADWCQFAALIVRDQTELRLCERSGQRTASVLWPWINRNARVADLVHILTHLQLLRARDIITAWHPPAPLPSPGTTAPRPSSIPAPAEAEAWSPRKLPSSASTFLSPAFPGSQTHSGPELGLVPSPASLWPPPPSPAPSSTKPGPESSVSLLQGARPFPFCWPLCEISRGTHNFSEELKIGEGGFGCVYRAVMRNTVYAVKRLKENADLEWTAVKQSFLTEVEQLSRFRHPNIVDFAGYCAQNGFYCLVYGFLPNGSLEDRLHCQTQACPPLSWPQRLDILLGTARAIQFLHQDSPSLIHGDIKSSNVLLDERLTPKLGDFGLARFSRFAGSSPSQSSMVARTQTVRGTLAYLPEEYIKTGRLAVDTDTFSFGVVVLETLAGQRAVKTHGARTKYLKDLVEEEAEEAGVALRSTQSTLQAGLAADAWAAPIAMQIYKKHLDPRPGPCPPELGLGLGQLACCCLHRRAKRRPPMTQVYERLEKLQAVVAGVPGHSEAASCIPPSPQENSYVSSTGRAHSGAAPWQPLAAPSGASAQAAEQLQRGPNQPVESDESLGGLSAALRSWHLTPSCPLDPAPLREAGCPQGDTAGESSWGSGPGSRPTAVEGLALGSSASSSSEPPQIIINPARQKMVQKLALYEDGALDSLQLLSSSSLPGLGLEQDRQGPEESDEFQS

Chain of Tyrosine-protein kinase Srms (Homo sapiens) (Q9H3Y6 whole entry): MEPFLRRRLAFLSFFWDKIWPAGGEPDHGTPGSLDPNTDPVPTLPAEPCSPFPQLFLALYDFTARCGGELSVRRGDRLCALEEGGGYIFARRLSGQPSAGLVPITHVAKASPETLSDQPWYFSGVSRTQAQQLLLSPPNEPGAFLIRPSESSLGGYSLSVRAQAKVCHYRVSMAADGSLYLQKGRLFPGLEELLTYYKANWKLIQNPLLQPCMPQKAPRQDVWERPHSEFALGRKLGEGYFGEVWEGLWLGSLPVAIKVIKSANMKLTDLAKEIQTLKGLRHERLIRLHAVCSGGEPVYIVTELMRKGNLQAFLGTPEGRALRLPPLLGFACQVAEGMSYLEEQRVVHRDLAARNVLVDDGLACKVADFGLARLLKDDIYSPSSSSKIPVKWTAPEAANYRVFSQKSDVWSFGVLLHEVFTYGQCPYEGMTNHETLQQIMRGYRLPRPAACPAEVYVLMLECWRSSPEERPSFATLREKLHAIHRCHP
Chain of Serine/threonine-protein kinase 32A (Homo sapiens) (Q8WU08 whole entry): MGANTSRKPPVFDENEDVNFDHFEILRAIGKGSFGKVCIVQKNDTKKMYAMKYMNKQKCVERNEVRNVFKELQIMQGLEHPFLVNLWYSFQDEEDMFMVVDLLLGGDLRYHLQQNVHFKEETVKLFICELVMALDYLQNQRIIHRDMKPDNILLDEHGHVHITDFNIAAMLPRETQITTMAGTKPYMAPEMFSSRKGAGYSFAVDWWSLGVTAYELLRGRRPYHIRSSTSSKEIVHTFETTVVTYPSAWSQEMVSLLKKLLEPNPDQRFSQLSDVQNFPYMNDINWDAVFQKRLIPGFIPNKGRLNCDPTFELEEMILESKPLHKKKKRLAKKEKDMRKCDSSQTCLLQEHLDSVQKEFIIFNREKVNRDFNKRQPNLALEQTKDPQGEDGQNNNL
Chain of Activin receptor type-2A (Homo sapiens) (P27037 whole entry): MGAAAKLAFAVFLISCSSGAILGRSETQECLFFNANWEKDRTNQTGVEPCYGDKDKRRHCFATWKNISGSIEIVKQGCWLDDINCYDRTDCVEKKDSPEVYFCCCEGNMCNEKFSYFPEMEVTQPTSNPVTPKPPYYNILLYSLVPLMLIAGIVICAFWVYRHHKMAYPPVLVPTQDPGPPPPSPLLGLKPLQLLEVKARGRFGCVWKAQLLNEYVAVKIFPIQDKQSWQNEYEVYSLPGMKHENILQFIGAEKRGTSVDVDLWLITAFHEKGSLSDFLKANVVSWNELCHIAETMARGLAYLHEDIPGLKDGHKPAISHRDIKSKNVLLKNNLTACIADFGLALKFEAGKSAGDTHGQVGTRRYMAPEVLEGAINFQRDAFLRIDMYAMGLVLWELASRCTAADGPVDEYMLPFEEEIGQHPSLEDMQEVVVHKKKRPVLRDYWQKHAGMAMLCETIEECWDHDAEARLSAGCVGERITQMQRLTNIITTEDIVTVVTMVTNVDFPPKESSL

`Cn1cc(-n2cnc3c(NCc4nc5cc(Cl)c(Cl)cc5[nH]4)nc(N4CCOCC4)nc32)cn1`: the % of inhibition in experiment [1] is -159%.

In experiment [2], `N#Cc1cccc(-c2c[nH]c3ncnc(N4CCOCC4)c23)c1` returned a % of control of 94%.

As to `Cc1cc(F)c(C(=O)Nc2cccc(-c3nncn3C(C)C)n2)cc1-n1cnc(C2CC2)c1`, the % of control in experiment [3] worked out at 100%.

For the molecule `Cc1cc([C@@H](C)Nc2ccccc2C(=O)O)c2nc(N3CCOCC3)cc(=O)n2c1` [AZD-6482], the % of control in [4] came out at 94%.

Take `CC[C@@H]1[C@H](F)C(=O)N[C@@H]1COc1nccc2cc(C(N)=O)c(OC)cc12` [ZIMLOVISERTIB]: the % of inhibition at SRSF protein kinase 1 was -7.7%.

For the molecule `C=CC(=O)Nc1cc(-n2c(=O)ccc3cnc4ccc(-c5ccc(NS(C)(=O)=O)cc5)cc4c32)ccc1C`, the % of control in [5] (at 1 µM) and in [5] (at 10 µM) was 100% each time.

In the case of `C=CC(=O)Nc1cccc(C(=O)Nc2ccc(Nc3cc(-c4[nH]c(SC)nc4C)ccn3)cc2)c1`, the % of control in [6] (at 1 µM) came out at 79%; in [6] (at 5 µM), 54%.

`O[C@H]1CC[C@H](Nc2ncc3nc(Nc4c(F)cc(F)cc4F)n([C@H]4CCOC4)c3n2)CC1`: in [7], the % of control stood at 89%.

In [8], `Nc1cnc(N2CCc3cc(S(=O)(=O)Nc4c(F)cc(Cl)cc4F)cc(N4CCCC4=O)c32)nc1` [TP-020n] registered a % of control of 100%.
